Source: publication PMC8291035 (Biochemical pharmacology, 2021)

Molecular target: ABCB1 (P-glycoprotein, P-gp, MDR1) (Homo sapiens, UniProt P08183)
Assay: cell-based

Chain of ABCB1 (P-glycoprotein, P-gp, MDR1) (P08183 whole entry): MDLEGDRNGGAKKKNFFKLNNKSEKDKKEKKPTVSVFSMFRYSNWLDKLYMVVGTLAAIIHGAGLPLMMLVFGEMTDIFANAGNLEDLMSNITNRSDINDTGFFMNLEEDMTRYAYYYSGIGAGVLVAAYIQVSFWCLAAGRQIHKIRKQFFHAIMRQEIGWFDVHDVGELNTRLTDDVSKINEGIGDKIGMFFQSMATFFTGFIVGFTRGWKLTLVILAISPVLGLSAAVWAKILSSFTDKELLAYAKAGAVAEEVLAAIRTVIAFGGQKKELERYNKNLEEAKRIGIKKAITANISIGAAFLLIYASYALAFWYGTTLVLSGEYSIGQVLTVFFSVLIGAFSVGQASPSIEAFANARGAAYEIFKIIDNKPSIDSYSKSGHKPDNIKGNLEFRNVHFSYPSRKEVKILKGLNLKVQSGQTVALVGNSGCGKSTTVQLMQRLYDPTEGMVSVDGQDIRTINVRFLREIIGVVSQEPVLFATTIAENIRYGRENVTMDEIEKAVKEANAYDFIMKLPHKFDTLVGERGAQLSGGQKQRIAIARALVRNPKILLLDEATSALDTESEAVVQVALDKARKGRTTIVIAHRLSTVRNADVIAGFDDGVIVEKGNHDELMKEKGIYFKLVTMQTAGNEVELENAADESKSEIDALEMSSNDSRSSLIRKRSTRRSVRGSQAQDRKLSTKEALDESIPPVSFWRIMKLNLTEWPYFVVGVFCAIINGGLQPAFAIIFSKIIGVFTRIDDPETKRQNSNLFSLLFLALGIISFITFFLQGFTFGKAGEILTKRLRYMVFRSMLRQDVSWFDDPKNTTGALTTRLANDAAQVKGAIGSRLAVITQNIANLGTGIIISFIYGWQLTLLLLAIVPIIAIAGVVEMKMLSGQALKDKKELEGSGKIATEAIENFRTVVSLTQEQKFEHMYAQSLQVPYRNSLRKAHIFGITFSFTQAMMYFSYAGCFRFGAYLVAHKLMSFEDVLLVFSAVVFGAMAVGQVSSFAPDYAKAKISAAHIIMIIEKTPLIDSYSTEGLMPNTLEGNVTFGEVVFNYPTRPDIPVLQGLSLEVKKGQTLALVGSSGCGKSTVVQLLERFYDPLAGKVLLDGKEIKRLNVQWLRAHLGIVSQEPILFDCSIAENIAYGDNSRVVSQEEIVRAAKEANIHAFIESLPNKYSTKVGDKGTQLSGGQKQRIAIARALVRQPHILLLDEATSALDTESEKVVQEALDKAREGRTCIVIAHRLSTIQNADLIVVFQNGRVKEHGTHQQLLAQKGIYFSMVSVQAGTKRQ

IC50: ~2000 nM
Structure (SMILES): C=CC(=O)Nc1cc(Nc2nccc(-c3cn(C4CC4)c4ccccc34)n2)c(OC)cc1N(C)CCN(C)C [almonertinib]
